The text below walks through data of PubChem BioAssay (NCI).

Molecules are shown by their SMILES.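 Values below derive from 48-hour exposures of cells grown in 96-well plates, with endpoints linearly interpolated between the two concentrations bracketing the appropriate inhibition level. Here, GI50 denotes the concentration required for 50% inhibition of growth. TGI is the concentration that stops growth completely.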 A value given as a limit tells only on which side of the number the result lay.

Among the test systems are MALME-3M melanoma; SF-539 CNS; K-562 leukemia; IGROV1 ovarian; SK-MEL-5 melanoma; SK-MEL-2 melanoma; HL-60(TB) leukemia; MDA-MB-435.
What all share (assay): NCI anticancer screen, dose series, 48 h

In the case of `CCCCn1c(=O)[nH]c(N)c([C@@H]2c3c([nH]c(=O)n(CCCC)c3=O)Oc3ccc4ccccc4c32)c1=O`, the GI50 is 2.34 µM in the assay with MALME-3M melanoma; 7.86 µM in the assay on SF-539 CNS; 12.2 µM in the assay on K-562 leukemia; 1.89 µM with IGROV1 ovarian; 3.06 µM in the assay with SK-MEL-5 melanoma; 2.51 µM in the assay on SK-MEL-2 melanoma. In addition, the GI50 was 2.47 µM in the assay on HL-60(TB) leukemia and 1.7 µM in the assay on MDA-MB-435. Also, the TGI in the assay with MALME-3M melanoma turned out to be 7.02 µM; with SF-539 CNS, 20.4 µM; with K-562 leukemia, 51.2 µM; with IGROV1 ovarian, 4.78 µM; in the assay on SK-MEL-5 melanoma, 10.7 µM; in the assay with SK-MEL-2 melanoma it was 7.34 µM. Also, the results for the TGI in the assay with HL-60(TB) leukemia and in the assay with MDA-MB-435 were 6.75 µM and 3.11 µM, respectively.

`O=C1NC(=O)C(c2c[nH]c3ccccc23)=C1c1c[nH]c2ccccc12`: the GI50 with MALME-3M melanoma is greater than 14.7 µM; with SF-539 CNS, 9.73 µM; in the assay with K-562 leukemia, 11.1 µM; in the assay on IGROV1 ovarian it was greater than 20.9 µM; in the assay with SK-MEL-5 melanoma it was 5.96 µM; in the assay on SK-MEL-2 melanoma, 12 µM. Moreover, the GI50 with HL-60(TB) leukemia was 11.1 µM; with MDA-MB-435, 6.86 µM. In addition, the TGI with MALME-3M melanoma was greater than 25 µM; in the assay with SF-539 CNS, greater than 25 µM; in the assay on K-562 leukemia, greater than 25 µM; with IGROV1 ovarian, greater than 25 µM; in the assay with SK-MEL-5 melanoma, 20.2 µM; in the assay on SK-MEL-2 melanoma, greater than 25 µM. Moreover, the TGI in the assay on HL-60(TB) leukemia and with MDA-MB-435 was greater than 25 µM throughout.

Turning to `CC(C)=CC[C@@H]1CC2(CC=C(C)C)C(=O)C(OC3(C(=O)c4ccccc4)C(=O)C4(CC=C(C)C)C[C@@H](CC=C(C)C)C(C)(C)C(CC=C(C)C)(C4=O)C3=O)(C(=O)c3ccccc3)C(=O)C(CC=C(C)C)(C2=O)C1(C)C` (stereo partly specified), the GI50 in the assay on MALME-3M melanoma was 0.901 µM; with SF-539 CNS it was 1.14 µM; in the assay on K-562 leukemia, 1.72 µM; with IGROV1 ovarian, 1.63 µM; in the assay with SK-MEL-5 melanoma, 0.806 µM; in the assay with SK-MEL-2 melanoma, 1.01 µM. Further, the GI50 with HL-60(TB) leukemia was 1.06 µM; in the assay with MDA-MB-435, 1.41 µM. Further, the TGI in the assay with MALME-3M melanoma worked out at 2.18 µM; in the assay on SF-539 CNS, 2.65 µM; in the assay with K-562 leukemia, 50 µM; in the assay on IGROV1 ovarian it was 7 µM; with SK-MEL-5 melanoma, 1.58 µM; in the assay on SK-MEL-2 melanoma it was 3.04 µM. The values for the TGI in the assay with HL-60(TB) leukemia and in the assay with MDA-MB-435 were 2.44 µM and 4.46 µM, respectively.

Consider `CN1CCN(Cc2ccc(NC(=O)c3cncc(C#Cc4cnc(N)c5ncccc45)c3)cc2C(F)(F)F)CC1`, for which the GI50 in the assay on MALME-3M melanoma is 0.131 µM; in the assay with SF-539 CNS, 0.306 µM; in the assay on IGROV1 ovarian it was 0.175 µM; in the assay with SK-MEL-5 melanoma, 0.432 µM; in the assay on SK-MEL-2 melanoma, 0.142 µM; in the assay with HL-60(TB) leukemia it was 0.0768 µM. For the same molecule, the GI50 in the assay on MDA-MB-435 is 0.247 µM. The TGI came to 0.607 µM in the assay on MALME-3M melanoma; 1.47 µM in the assay with SF-539 CNS; 1.92 µM in the assay on K-562 leukemia; 2.58 µM in the assay on IGROV1 ovarian; 1.59 µM in the assay on SK-MEL-5 melanoma; 0.468 µM in the assay on SK-MEL-2 melanoma. Also, the TGI in the assay with HL-60(TB) leukemia is 0.602 µM; in the assay on MDA-MB-435, 1.44 µM.

For `Nc1ccc(/C=C/c2ccc3ncccc3c2)cc1`, the GI50 with MALME-3M melanoma, in the assay with SF-539 CNS, with K-562 leukemia, in the assay with IGROV1 ovarian, in the assay with SK-MEL-5 melanoma and in the assay on SK-MEL-2 melanoma was greater than 100 µM throughout. Moreover, the GI50 in the assay on HL-60(TB) leukemia is 1.52 µM; in the assay with MDA-MB-435, greater than 100 µM. Also, the TGI in the assay with MALME-3M melanoma, with SF-539 CNS, in the assay on K-562 leukemia, in the assay with IGROV1 ovarian, with SK-MEL-5 melanoma and in the assay with SK-MEL-2 melanoma was greater than 100 µM each time. The TGI in the assay with HL-60(TB) leukemia and with MDA-MB-435 was greater than 100 µM in each case.

For the molecule `CC(C)=CCC/C(C)=C/CC/C(C)=C/CSC[C@H](NC(=O)CCCCCN1CCN(C)CC1)C(=O)NC1CCCCCC1`, the GI50 with MALME-3M melanoma was 1.94 µM; in the assay on SF-539 CNS, 1.89 µM; with K-562 leukemia, 2.24 µM; in the assay with IGROV1 ovarian it was 2.36 µM; in the assay on SK-MEL-5 melanoma, 1.77 µM; in the assay on SK-MEL-2 melanoma it was 2.24 µM. Moreover, the GI50 with HL-60(TB) leukemia is 1.98 µM; in the assay on MDA-MB-435 it was 1.85 µM. Further, the TGI in the assay on MALME-3M melanoma was 3.56 µM; with SF-539 CNS it was 3.38 µM; in the assay with K-562 leukemia it was 5.14 µM; in the assay with IGROV1 ovarian, 5.31 µM; in the assay on SK-MEL-5 melanoma, 3.18 µM; in the assay with SK-MEL-2 melanoma, 4.42 µM. The TGI in the assay on HL-60(TB) leukemia was found to be 4.14 µM; in the assay with MDA-MB-435, 3.43 µM.

`CCC(=C(c1ccc(OCCN2CCCCC2)cc1)c1ccc(OCCN2CCCCC2)cc1)c1ccc(Cl)cc1`: the GI50 is 2.72 µM in the assay on MALME-3M melanoma; 2.55 µM with SF-539 CNS; 0.4 µM in the assay with K-562 leukemia; 12.9 µM in the assay with IGROV1 ovarian; 2.83 µM in the assay on SK-MEL-5 melanoma; 9.5 µM with SK-MEL-2 melanoma. Besides, the GI50 in the assay with HL-60(TB) leukemia was 3.41 µM; in the assay with MDA-MB-435 it was 2.61 µM. The TGI was 5.21 µM with MALME-3M melanoma; 5.02 µM in the assay on SF-539 CNS; 1.07 µM in the assay on K-562 leukemia; greater than 16.7 µM in the assay with IGROV1 ovarian; 5.3 µM in the assay on SK-MEL-5 melanoma; greater than 16.7 µM with SK-MEL-2 melanoma. The TGI was 9.55 µM with HL-60(TB) leukemia and 5.39 µM in the assay on MDA-MB-435.

As for `CC(C)=CCc1cc2c(cc1O)C1=C(C(=O)C3=C(NCCS3(=O)=O)C1=O)C(C=C(C)C)O2` (stereo unspecified), the GI50 is 1.68 µM in the assay on MALME-3M melanoma; 4.22 µM in the assay on SF-539 CNS; 5.02 µM in the assay on K-562 leukemia; 3.69 µM with IGROV1 ovarian; 3.35 µM in the assay on SK-MEL-5 melanoma; 4.34 µM with SK-MEL-2 melanoma. For the same molecule, the GI50 is 4.43 µM with HL-60(TB) leukemia and 2.89 µM with MDA-MB-435. Also, the TGI in the assay with MALME-3M melanoma was 4.68 µM; with SF-539 CNS, 12.9 µM; with K-562 leukemia, greater than 16.7 µM; with IGROV1 ovarian, 15 µM; in the assay with SK-MEL-5 melanoma, 6.95 µM; with SK-MEL-2 melanoma, 15 µM. For the same molecule, the TGI was 13.5 µM with HL-60(TB) leukemia and 5.6 µM in the assay on MDA-MB-435.

With `C[N+]1([O-])C2CCC1CC(OC(=O)C(CO)c1ccccc1)C2` (stereo unspecified), the TGI in the assay on MALME-3M melanoma, with SF-539 CNS, in the assay with K-562 leukemia, with IGROV1 ovarian, with SK-MEL-5 melanoma and with SK-MEL-2 melanoma was greater than 100 µM each time. The TGI with HL-60(TB) leukemia and in the assay with MDA-MB-435 was greater than 100 µM each time.

For `Cn1cc(-c2ccc3nc(-c4ccc(CC(=O)Nc5cc(C(C)(C)C)no5)cc4)cnc3c2)cn1`, the GI50 was 0.021 µM in the assay with MALME-3M melanoma; 0.0274 µM in the assay on SF-539 CNS; 0.017 µM in the assay with K-562 leukemia; 0.013 µM in the assay with IGROV1 ovarian; 0.0237 µM in the assay on SK-MEL-2 melanoma; 0.735 µM in the assay with HL-60(TB) leukemia. Moreover, in the assay on MDA-MB-435, the GI50 was 0.0505 µM. Further, the TGI with MALME-3M melanoma was greater than 0.694 µM; in the assay on SF-539 CNS, greater than 3 µM; in the assay with K-562 leukemia, greater than 3 µM; with IGROV1 ovarian, greater than 1.21 µM; with SK-MEL-5 melanoma, greater than 3 µM; in the assay on SK-MEL-2 melanoma, 0.581 µM. For the same molecule, the TGI in the assay with HL-60(TB) leukemia and in the assay with MDA-MB-435 was greater than 3 µM in each case.

With `CCN(Cc1ccc(OC)cc1)c1ccc(CO)c(Cl)c1`, the GI50 is 17 µM in the assay with MALME-3M melanoma; 19.9 µM in the assay with SF-539 CNS; 2.33 µM in the assay on K-562 leukemia; 0.114 µM with IGROV1 ovarian; 2.66 µM with SK-MEL-5 melanoma; 3.79 µM in the assay on SK-MEL-2 melanoma. Further, the GI50 was 13.8 µM with HL-60(TB) leukemia and 16.7 µM in the assay on MDA-MB-435. Moreover, the TGI in the assay with MALME-3M melanoma is 38.4 µM; in the assay on SF-539 CNS, 46.3 µM; with K-562 leukemia, greater than 100 µM; in the assay on IGROV1 ovarian, 1.16 µM; in the assay with SK-MEL-5 melanoma, 18.6 µM; in the assay on SK-MEL-2 melanoma, 20.2 µM. Also, the TGI in the assay on HL-60(TB) leukemia turned out to be 59.9 µM; with MDA-MB-435, 43.6 µM.

For the molecule `O=[N+]([O-])c1ccc(C2=NCCO2)cc1`, the GI50 in the assay with MALME-3M melanoma, in the assay with SF-539 CNS, in the assay with K-562 leukemia, in the assay on IGROV1 ovarian, with SK-MEL-5 melanoma and with SK-MEL-2 melanoma was greater than 100 µM in each case. Also, the GI50 in the assay on HL-60(TB) leukemia and in the assay with MDA-MB-435 was greater than 100 µM each time. Moreover, the TGI with MALME-3M melanoma, in the assay on SF-539 CNS, with K-562 leukemia, in the assay with IGROV1 ovarian, in the assay on SK-MEL-5 melanoma and in the assay with SK-MEL-2 melanoma was greater than 100 µM in each case. For the same molecule, the TGI in the assay with HL-60(TB) leukemia and in the assay on MDA-MB-435 was greater than 100 µM each time.

As to `CC1(C)N=C(N)N=C(N)N1c1ccc(OCCCNC(=O)Nc2ccc(S(=O)(=O)F)cc2)c(Cl)c1`, the GI50 was 2.02 µM with MALME-3M melanoma; 1.3 µM with SF-539 CNS; 0.0497 µM in the assay on K-562 leukemia; 0.281 µM in the assay with IGROV1 ovarian; 0.146 µM in the assay with SK-MEL-5 melanoma; 0.79 µM with SK-MEL-2 melanoma. The GI50 in the assay with HL-60(TB) leukemia is 0.113 µM; in the assay with MDA-MB-435, 0.143 µM. Also, the TGI is greater than 100 µM with MALME-3M melanoma; greater than 67.4 µM in the assay on SF-539 CNS; greater than 100 µM with K-562 leukemia; greater than 100 µM with IGROV1 ovarian; 13.3 µM in the assay on SK-MEL-5 melanoma; greater than 100 µM in the assay with SK-MEL-2 melanoma. Further, the TGI in the assay on HL-60(TB) leukemia is greater than 65.3 µM; with MDA-MB-435 it was greater than 100 µM.

Regarding `Cc1ccc(N)c(S)c1`, the TGI came out at 82.6 µM in the assay with MALME-3M melanoma; 31.3 µM in the assay on SF-539 CNS; 65.1 µM in the assay with K-562 leukemia; 31.5 µM in the assay with IGROV1 ovarian; 30.6 µM with SK-MEL-5 melanoma; 31.5 µM in the assay on SK-MEL-2 melanoma. The TGI in the assay on HL-60(TB) leukemia stood at 58.5 µM; in the assay on MDA-MB-435, 36.1 µM.
